How the values were obtained:
[1] = biological target: Prothrombin (Homo sapiens) (UniProt P00734); experiment: Inhibitory activity against the human alpha-thrombin
[2] = biological target: Tissue-type plasminogen activator (Homo sapiens) (UniProt P00750); experiment: Inhibitory activity against the human tissue plasminogen activator
[3] = biological target: Plasminogen (Homo sapiens) (UniProt P00747); experiment: Inhibitory activity against the human plasmin
[4] = Anticoagulant activity for the compound by determining the concentration required to double the activated partial thromboplastin time.; format: functional
[5] = Anticoagulant activity for the compound by determining the concentration required to double the prothrombin time.; format: functional
[6] = Anticoagulant activity for the compound by determining the concentration required to double the thrombin time.; format: functional
[7] = biological target: Urokinase-type plasminogen activator (Homo sapiens) (UniProt P00749); experiment: Inhibitory activity against the human urokinase
[8] = biological target: Serine protease 1 (Homo sapiens) (UniProt P07477); experiment: Inhibitory activity against the human trypsin
[9] = biological target: Vitamin K-dependent protein C (Homo sapiens) (UniProt P04070); experiment: Inhibitory activity against the activated human protein C
[10] = biological target: Vitamin K-dependent protein C (Homo sapiens) (UniProt P04070); experiment: Inhibitory activity against the human activated protein C

Chain of Serine protease 1 (Homo sapiens) (P07477 whole entry): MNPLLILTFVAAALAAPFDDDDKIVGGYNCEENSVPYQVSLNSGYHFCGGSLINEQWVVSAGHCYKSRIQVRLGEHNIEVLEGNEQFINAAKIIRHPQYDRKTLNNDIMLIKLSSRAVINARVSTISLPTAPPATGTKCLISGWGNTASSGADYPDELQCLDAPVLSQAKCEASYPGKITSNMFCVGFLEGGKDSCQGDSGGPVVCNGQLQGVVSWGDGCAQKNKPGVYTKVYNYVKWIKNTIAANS
Chain of Vitamin K-dependent protein C (Homo sapiens) (P04070 43-197 limits assumed): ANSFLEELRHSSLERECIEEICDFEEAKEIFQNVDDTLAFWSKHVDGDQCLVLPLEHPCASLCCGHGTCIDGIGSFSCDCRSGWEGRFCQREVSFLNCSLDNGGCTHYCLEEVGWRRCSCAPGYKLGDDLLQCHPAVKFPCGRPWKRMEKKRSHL
Chain of Vitamin K-dependent protein C (Homo sapiens) (P04070 212-461 limits assumed): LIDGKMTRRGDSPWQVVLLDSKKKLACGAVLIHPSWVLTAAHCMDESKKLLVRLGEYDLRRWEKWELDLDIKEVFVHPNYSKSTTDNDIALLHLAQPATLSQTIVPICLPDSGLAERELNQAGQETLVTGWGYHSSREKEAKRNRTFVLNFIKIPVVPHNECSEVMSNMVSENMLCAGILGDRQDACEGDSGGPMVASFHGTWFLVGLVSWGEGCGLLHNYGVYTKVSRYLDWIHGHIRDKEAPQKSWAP
Chain of Plasminogen (Homo sapiens) (P00747 97-580 limits assumed): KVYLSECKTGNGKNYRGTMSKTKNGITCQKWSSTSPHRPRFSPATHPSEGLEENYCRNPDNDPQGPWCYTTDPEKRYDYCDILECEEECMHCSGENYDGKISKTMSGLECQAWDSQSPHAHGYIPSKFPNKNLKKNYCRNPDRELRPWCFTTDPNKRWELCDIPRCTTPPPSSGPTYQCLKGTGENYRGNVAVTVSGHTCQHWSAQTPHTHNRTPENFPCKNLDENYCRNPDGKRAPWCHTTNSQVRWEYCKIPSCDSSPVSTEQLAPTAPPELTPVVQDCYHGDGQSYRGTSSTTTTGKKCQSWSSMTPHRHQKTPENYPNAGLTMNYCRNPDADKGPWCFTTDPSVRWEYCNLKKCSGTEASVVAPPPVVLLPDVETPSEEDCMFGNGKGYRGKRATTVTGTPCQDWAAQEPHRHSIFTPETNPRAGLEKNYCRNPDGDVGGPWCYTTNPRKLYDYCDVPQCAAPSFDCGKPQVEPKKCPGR
Chain of Plasminogen (Homo sapiens) (P00747 581-810 limits assumed): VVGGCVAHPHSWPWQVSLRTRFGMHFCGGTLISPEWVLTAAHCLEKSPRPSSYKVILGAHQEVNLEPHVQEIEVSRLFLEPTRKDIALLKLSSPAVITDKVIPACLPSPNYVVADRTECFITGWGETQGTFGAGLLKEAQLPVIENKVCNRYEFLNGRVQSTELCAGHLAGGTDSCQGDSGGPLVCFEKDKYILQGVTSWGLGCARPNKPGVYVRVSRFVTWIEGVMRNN
Chain of Tissue-type plasminogen activator (Homo sapiens) (P00750 36-562 limits assumed): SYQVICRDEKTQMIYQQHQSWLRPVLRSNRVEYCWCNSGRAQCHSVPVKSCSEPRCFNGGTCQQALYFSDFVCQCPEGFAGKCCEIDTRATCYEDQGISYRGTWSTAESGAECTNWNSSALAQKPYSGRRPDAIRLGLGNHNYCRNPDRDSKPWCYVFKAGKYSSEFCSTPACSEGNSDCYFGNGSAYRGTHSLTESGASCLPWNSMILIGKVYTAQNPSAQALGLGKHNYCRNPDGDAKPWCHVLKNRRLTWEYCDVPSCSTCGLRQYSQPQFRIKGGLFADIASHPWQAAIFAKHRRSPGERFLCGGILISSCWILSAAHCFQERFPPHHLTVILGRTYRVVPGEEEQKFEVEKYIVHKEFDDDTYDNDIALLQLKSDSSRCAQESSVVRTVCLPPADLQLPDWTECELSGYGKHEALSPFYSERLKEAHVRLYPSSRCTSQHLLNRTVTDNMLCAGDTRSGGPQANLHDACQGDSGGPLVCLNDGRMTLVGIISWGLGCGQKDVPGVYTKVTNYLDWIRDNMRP

SMILES	K ass [1]	K ass [2]	K ass [3]	Concentration [4]	Concentration [5]	Concentration [6]	K ass [7]	K ass [8]	K ass [9]	K ass [10]
O=C(O)CN[C@H](CC1CCCCC1)C(=O)N1CCC[C@H]1C(=O)NC/C=C/c1c[nH]cn1	8.4e+07 l M-1	–	–	–	–	–	–	–	–	–
N[C@H](CC1CCCCC1)C(=O)N1CCC[C@H]1C(=O)NC/C=C/c1c[nH]cn1	1.6e+07 l M-1	–	–	–	–	–	–	–	–	–
NC(N)=NCCCCNC(=O)[C@@H]1CCCN1C(=O)[C@H](N)CC1CCCCC1	3e+07 l M-1	11000 l M-1	10000 l M-1	490 ng/mL	770 ng/mL	44 ng/mL	< 10000 l M-1	260000 M⁻¹	10000 l M-1	–
N[C@H](CC1CCCCC1)C(=O)N1[C@H](C(=O)NCCCc2c[nH]cn2)C[C@@H]2CCCC[C@@H]21	3.4e+07 l M-1	< 10000 l M-1	< 10000 l M-1	470 ng/mL	700 ng/mL	61 ng/mL	< 10000 l M-1	40000 l M-1	–	10000 l M-1
CN[C@H](Cc1ccccc1)C(=O)N1CCC[C@H]1C(=O)N[C@H](C=O)CCCNC(=N)N	6.7e+08 l M-1	–	1.5e+06 l M-1	930 ng/mL	1000 ng/mL	41 ng/mL	40000 l M-1	91 l M-1	300000 l M-1	–
N[C@H](CC1CCCCC1)C(=O)N1CCC[C@H]1C(=O)NCCc1c[nH]cn1	4.4e+06 l M-1	–	–	–	–	–	–	–	–	–
N[C@H](CC1CCCCC1)C(=O)N1[C@H](C(=O)NC/C=C/c2c[nH]cn2)C[C@@H]2CCCC[C@@H]21	7e+06 l M-1	–	–	–	–	–	–	–	–	–
Cc1[nH]cnc1CCCNC(=O)[C@@H]1CCCN1C(=O)[C@H](N)CC1CCCCC1	2.3e+07 l M-1	–	–	–	–	–	–	–	–	–
O=C(O)CN[C@H](CC1CCCCC1)C(=O)N1CCC[C@H]1C(=O)NCCCc1c[nH]cn1	1e+08 l M-1	< 10000 l M-1	< 10000 l M-1	170 ng/mL	380 ng/mL	20 ng/mL	< 10000 l M-1	290000 l M-1	–	20000 l M-1
N[C@H](CC1CCCCC1)C(=O)N1CCC[C@H]1C(=O)NCCCc1c[nH]cn1	2e+07 l M-1	< 10000 l M-1	< 10000 l M-1	660 ng/mL	1000 ng/mL	74 ng/mL	< 10000 l M-1	10000 l M-1	–	< 10000 l M-1
N[C@H](CC1CCCCC1)C(=O)N1CCC[C@H]1C(=O)NCCCCc1c[nH]cn1	1.3e+06 l M-1	–	–	–	–	–	–	–	–	–

Source: ChEMBL document CHEMBL1131990, “The design of potent, selective, non-covalent, peptide thrombin inhibitors utilizing imidazole as a S1 binding element” (Bioorg Med Chem Lett, 1999)
